Structures can show the parent of a compound that is named as a salt.
How the values were obtained:
c-Met enzyme = c-Met enzyme (Homo sapiens (Human), UniProt P08581); assay: c-Met kinase inhibitory activity (DELFIA time-resolved fluorescence); format: biochemical; conditions: c-Met kinase activity reduced to 50%
Experimental: The c-Met kinase inhibitory activity was analyzed using dissociation enhanced lanthanide fluoro-immunoassay (DELFIA, Perkin Elmer), which is a kind of time-resolved fluorescence (TRF). […] of the compound prepared in the present invention, as a test compound, was put in a Greiner 96-well V-shaped bottom plate, and a tyrosin kinase buffer ([…]) mixed with a c-Met enzyme was added thereto, and then the enzyme and the test compound were stirred for 15 minutes, followed by culturing. An ATP solution ([…]) was added thereto to proceed with a kinase reaction at room temperature for 30 minutes, and then a 50 mM […] solution (EDTA, […]) was added to stop the reaction. After that, the reaction mixture was transferred to a plate coated with Streptavidin, followed by culturing under shaking. After 2 hours, the cultured material was washed three times with a PBS-T buffer (PBS 0.05% Tween 20).
The europium-labeled anti-phosphotyrosine antibody was diluted to 1:[…] of the diluent was added per well, followed by culturing under shaking. After 1 hour, the cultured material was washed three times with a PBS-T buffer (PBS 0.05% Tween 20).

[1] = test system: gastric cancer cell line Hs746T; assay: Cancer cell proliferation inhibitory test (SRB or MTS assay, 72 hours); format: cell-based; conditions: Homo sapiens, cancer cell (Hs746T) proliferation inhibition, culturing with compound for 72 hours
Experimental: The drug used in the test was diluted to a desired concentration as a test medium, and the final concentration of dimethyl sulfoxide was 0.5% or less.
All the cancer cell lines used in the test originated from the human body, and gastric cancer cell lines Hs746T and MKN-45 were used.
5×10^3 cells of Hs746T were dispensed to each well of the 96-well flat bottom micro-plate. MKN-45 was dispensed at 1×10^4 cells. The cells were cultured for 24 hours, so that the cells adhered to the bottom, and then the culture liquid was removed. The culture liquid containing each of the compounds of the present invention was added, followed by culturing for 72 hours. After the culturing with the compound was completed, the cytotoxicity was measured using protein stain reagent SRB or MTS assay.
Specifically, after the culturing with the compound of the present invention was completed, the cultured liquid was removed. Each well was treated with a cool TCA solution, and allowed to stand at 4° C. for 1 hour to fix cells. The TCA solution was removed, followed by drying at room temperature, and then a stain solution containing 0.4% SRB dissolved in 1% acetic acid solution was added, and then the mixture was allowed to stand for 30 minutes to stain cells. […] The absorbance of each well was measured at a wavelength range of 520 nm using an Eliza reader (micro-plate reader).
The drug cytotoxicity was measured from the OD values for the well added without the drug (C), each well added with the drug (T), and the well initially added with the drug (Tz): [(T−Tz)/(C−Tz)]×100 for […]; or [(T−Tz)/(Tz)]×100 for Tz>T.
The cancer cell inhibitory activity measurement using MTS assay was conducted as follows. Specifically, after the culturing with the compound of the present invention was completed, the PMS solution and MTS solution constituting the CellTiter 96® AQueous Non-Radioactive Cell Proliferation Assay product from Promega Co. were mixed, and 20 μL was put into each well. After the cells were placed in an incubator for 4 hours, and then taken out and allowed to stand at room temperature for 10 minutes.

Chain of c-Met enzyme (P08581 25-1390): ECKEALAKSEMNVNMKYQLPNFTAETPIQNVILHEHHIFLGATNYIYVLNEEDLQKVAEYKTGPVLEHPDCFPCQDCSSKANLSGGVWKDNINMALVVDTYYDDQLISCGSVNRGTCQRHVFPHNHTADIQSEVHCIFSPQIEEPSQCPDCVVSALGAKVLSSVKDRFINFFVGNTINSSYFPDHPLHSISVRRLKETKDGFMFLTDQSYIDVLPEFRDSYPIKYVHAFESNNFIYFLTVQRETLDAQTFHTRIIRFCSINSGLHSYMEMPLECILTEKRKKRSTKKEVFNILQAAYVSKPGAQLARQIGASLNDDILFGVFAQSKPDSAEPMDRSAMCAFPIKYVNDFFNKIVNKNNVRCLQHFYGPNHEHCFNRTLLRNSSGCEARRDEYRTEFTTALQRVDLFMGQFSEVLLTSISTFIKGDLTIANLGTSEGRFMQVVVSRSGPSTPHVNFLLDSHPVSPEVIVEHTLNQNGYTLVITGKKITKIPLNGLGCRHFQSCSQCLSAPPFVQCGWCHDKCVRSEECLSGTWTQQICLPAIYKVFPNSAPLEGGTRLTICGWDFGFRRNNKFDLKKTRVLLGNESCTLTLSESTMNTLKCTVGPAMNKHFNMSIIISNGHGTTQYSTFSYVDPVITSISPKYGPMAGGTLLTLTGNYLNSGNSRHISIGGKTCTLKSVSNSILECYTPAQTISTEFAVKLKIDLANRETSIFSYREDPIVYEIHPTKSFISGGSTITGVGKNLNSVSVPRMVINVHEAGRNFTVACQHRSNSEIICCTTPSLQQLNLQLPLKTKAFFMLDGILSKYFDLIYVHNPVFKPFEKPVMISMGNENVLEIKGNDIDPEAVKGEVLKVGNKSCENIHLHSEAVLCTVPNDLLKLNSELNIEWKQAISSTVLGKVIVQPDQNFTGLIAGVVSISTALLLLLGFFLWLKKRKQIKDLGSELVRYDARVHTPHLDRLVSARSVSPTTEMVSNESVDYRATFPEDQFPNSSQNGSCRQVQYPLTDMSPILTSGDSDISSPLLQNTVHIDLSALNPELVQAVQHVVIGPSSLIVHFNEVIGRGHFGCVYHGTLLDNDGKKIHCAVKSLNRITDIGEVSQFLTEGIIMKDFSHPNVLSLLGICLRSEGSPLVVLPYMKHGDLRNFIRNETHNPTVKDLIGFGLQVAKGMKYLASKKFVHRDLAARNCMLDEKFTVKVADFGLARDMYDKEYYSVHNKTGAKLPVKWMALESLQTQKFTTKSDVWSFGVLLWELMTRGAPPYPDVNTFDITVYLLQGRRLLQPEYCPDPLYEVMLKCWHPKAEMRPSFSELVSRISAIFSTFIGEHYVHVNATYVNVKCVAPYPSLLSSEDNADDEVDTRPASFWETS

IC50 (c-Met enzyme) [nM]	IC50 [1] [nM]	SMILES
6	0.11	CN1CCC(n2cc(-c3cnc(N4CCO[C@H](Cn5nnc6ncc(-c7cnn(C)c7)nc65)C4)nc3)cn2)CC1 [Chemical formula 7, (S)-2-((6-(1-methyl-1H-pyrazol-4-yl)-1H-[1,2,3]triazolo[4,5-b]pyrazin-1-yl)methyl)-4-(5-(1-(1-methylpiperidin-4-yl)-1H-pyrazol-4-yl)pyrimidin-2-yl)morpholine]
4	0.14	Cn1cc(-c2cnc3nnn(C[C@@H]4CN(c5ncc(-c6cnn(C7CCN(CCO)CC7)c6)cn5)CCO4)c3n2)cn1 [Chemical formula 8, (S)-2-(4-(4-(2-(2-((6-(1-methyl-1H-pyrazol-4-yl)-1H-[1,2,3]triazolo[4,5-b]pyrazin-1-yl)methyl)morpholino)pyrimidin-5-yl)-1H-pyrazol-1-yl)piperidin-1-yl)ethanol]
4	1.1	CN1CC=C(c2cnc(N3CCO[C@H](Cn4nnc5ncc(-c6cnn(C)c6)nc54)C3)nc2)CC1 [Chemical formula 10, (S)-4-(5-(1-methyl-1,2,3,6-tetrahydropyridin-4-yl)pyrimidin-2-yl)-2-((6-(1-methyl-1H-pyrazol-4-yl)-1H-[1,2,3]triazolo[4,5-b]pyrazin-1-yl)methyl)morpholine]
3	0.93	Cn1cc(-c2cnc3nnn(C[C@@H]4CN(c5ncc(-c6cnn(CCO)c6)cn5)CCO4)c3n2)cn1 [Chemical formula 11, (S)-2-(4-(2-(2-((6-(1-methyl-1H-pyrazol-4-yl)-1H-[1,2,3]triazolo[4,5-b]pyrazin-1-yl)methyl)morpholino)pyrimidin-5-yl)-1H-pyrazol-1-yl)ethanol hydrochloride]
4	0.96	Cn1cc(-c2cnc3nnn(C[C@@H]4CN(c5ncc(C6=CCN(CCO)CC6)cn5)CCO4)c3n2)cn1 [Chemical formula 12, (S)-2-(4-(2-(2-((6-(1-methyl-1H-pyrazol-4-yl)-1H-[1,2,3]triazolo[4,5-b]pyrazin-1-yl)methyl)morpholino)pyrimidin-5-yl)-5,6-dihydropyridin-1(2H)-yl)ethanol]
15	0.86	Cn1cc(-c2cnc3nnn(C[C@@H]4CN(c5ncc(-c6ccc(OCCN7CCOCC7)c(F)c6)cn5)CCO4)c3n2)cn1 [Chemical formula 13, (S)-4-(5-(3-fluoro-4-(2-morpholinoethoxy)phenyl)pyrimidin-2-yl)-2-((6-(1-methyl-1H-pyrazol-4-yl)-1H-[1,2,3]triazolo[4,5-b]pyrazin-1-yl)methyl)morpholine]
14	4.1	Cn1cc(-c2cnc3nnn(C[C@@H]4CN(c5ncc(-c6ccc(OCCN7CCOCC7)cc6)cn5)CCO4)c3n2)cn1 [Chemical formula 14, (S)-2-((6-(1-methyl-1H-pyrazol-4-yl)-1H-[1,2,3]triazolo[4,5-b]pyrazin-1-yl)methyl)-4-(5-(4-(2-morpholinoethoxy)phenyl)pyrimidin-2-yl)morpholine]
6		CN1CCN(CCOc2ccc(-c3cnc(N4CCO[C@H](Cn5nnc6ncc(-c7cnn(C)c7)nc65)C4)nc3)cc2)CC1 [Chemical formula 15, (S)-2-((6-(1-methyl-1H-pyrazol-4-yl)-1H-[1,2,3]triazolo[4,5-b]pyrazin-1-yl)methyl)-4-(5-(4-(2-(4-methylpiperazin-1-yl)ethoxy)phenyl)pyrimidin-2-yl)morpholine]
	2.1	Cn1cc(-c2cnc3nnn(C[C@@H]4CN(c5ncc(OCCN6CCOCC6)cn5)CCO4)c3n2)cn1 [Chemical formula 16, (S)-2-((6-(1-methyl-1H-pyrazol-4-yl)-1H-[1,2,3]triazolo[4,5-b]pyrazin-1-yl)methyl)-4-(5-(2-morpholinoethoxy)pyrimidin-2-yl)morpholine]
3		N#Cc1cc(-c2cnc3nnn(C[C@@H]4CN(c5ncc(C6=CCN(CCO)CC6)cn5)CCO4)c3n2)ccc1F [Chemical formula 38, (S)-2-fluoro-5-(1-((4-(5-(1-(2-hydroxyethyl)-1,2,3,6-tetrahydropyridin-4-yl)pyrimidin-2-yl)morpholine-2-yl)methyl)-1H-[1,2,3]triazolo[4,5-b]pyrazin-6-yl)benzonitrile]
2		CN1CCN(Cc2ccc(-c3cnc(N4CCO[C@H](Cn5nnc6ncc(-c7ccc(F)c(C#N)c7)nc65)C4)nc3)cc2F)CC1 [Chemical formula 39, (S)-2-fluoro-5-(1-((4-(5-(3-fluoro-4-((4-methylpiperazin-1-yl)methyl)phenyl)pyrimidin-2-yl)morpholine-2-yl)methyl)-1H-[1,2,3]triazolo[4,5-b]pyrazin-6-yl)benzonitrile]
2		CN1CCN(Cc2ccc(-c3cnc(N4CCO[C@H](Cn5nnc6ncc(-c7cnn(C)c7)nc65)C4)nc3)cc2F)CC1 [Chemical formula 40, (S)-4-(5-(3-fluoro-4-((4-methylpiperazin-1-yl)methyl)phenyl)pyrimidin-2-yl)-2-((6-(1-methyl-1H-pyrazol-4-yl)-1H-[1,2,3]triazolo[4,5-b]pyrazin-1-yl)methyl)morpholine]
4		Cn1cc(-c2cnc3nnn(C[C@@H]4CN(c5ncc(-c6ccc(CN7CCOCC7)c(F)c6)cn5)CCO4)c3n2)cn1 [Chemical formula 42, (S)-4-(5-(3-fluoro-4-(morpholinomethyl)phenyl)pyrimidin-2-yl)-2-((6-(1-methyl-1H-pyrazol-4-yl)-1H-[1,2,3]triazolo[4,5-b]pyrazin-1-yl)methyl)morpholine]
8		CC(=O)N1CCN(Cc2ccc(-c3cnc(N4CCO[C@H](Cn5nnc6ncc(-c7cnn(C)c7)nc65)C4)nc3)cc2)CC1 [Chemical formula 45, (S)-1-(4-(4-(2-(2-((6-(1-methyl-1H-pyrazol-4-yl)-1H-[1,2,3]triazolo[4,5-b]pyrazin-1-yl)methyl)morpholino)pyrimidin-5-yl)benzyl)piperazin-1-yl)ethanone]
13		CN1CCN(C(=O)c2ccc(-c3cnc(N4CCO[C@H](Cn5nnc6ncc(-c7cnn(C)c7)nc65)C4)nc3)cc2)CC1 [Chemical formula 47, (S)-(4-(2-(2-((6-(1-methyl-1H-pyrazol-4-yl)-1H-[1,2,3]triazolo[4,5-b]pyrazin-1-yl)methyl)morpholino)pyrimidin-5-yl)phenyl)(4-methylpiperazin-1-yl) methanone]
6		CN1CCN(C(=O)c2ccc(-c3cnc(N4CCC[C@H](Cn5nnc6ncc(-c7cnn(C)c7)nc65)C4)nc3)cc2)CC1 [Chemical formula 48, (S)-(4-(2-(3-((6-(1-methyl-1H-pyrazol-4-yl)-1H-[1,2,3]triazolo[4,5-b]pyrazin-1-yl)methyl)piperidin-1-yl)pyrimidin-5-yl)phenyl)(4-methylpiperazin-1-yl)methanone]
8		CN1CCN(Cc2ccc(-c3cnc(N4CCO[C@H](Cn5nnc6ncc(-c7cccc(C#N)c7)nc65)C4)nc3)cc2)CC1 [Chemical formula 49, (S)-3-(1-((4-(5-(4-((4-methylpiperazin-1-yl)methyl)phenyl)pyrimidin-2-yl)morpholin-2-yl)methyl)-1H-[1,2,3]triazolo[4,5-b]pyrazin-6-yl)benzonitrile]

SMILES	IC50 (c-Met enzyme) [nM]	IC50 [1] [nM]
Cn1cc(-c2cnc3nnn(C[C@@H]4CN(c5ncc(-c6cnn(C7CCNCC7)c6)cn5)CCO4)c3n2)cn1 [Chemical formula 4, (S)-2-((6-(1-methyl-1H-pyrazol-4-yl)-1H-[1,2,3]triazolo[4,5-b]pyrazin-1-yl)methyl)-4-(5-(1-(piperidin-4-yl)-1H-pyrazol-4-yl)pyrimidin-2-yl)morpholine HCl salt]	11	1.2
Cn1cc(-c2cnc3nnn(C[C@@H]4CN(c5ncc(C6=CCNCC6)cn5)CCO4)c3n2)cn1 [Chemical formula 9, (S)-2-((6-(1-methyl-1H-pyrazol-4-yl)-1H-[1,2,3]triazolo[4,5-b]pyrazin-1-yl)methyl)-4-(5-(1,2,3,6-tetrahydropyridin-4-yl)pyrimidin-2-yl)morpholine hydrochloride]	3	0.95

Reference: patent US9403831B2, “Triazolopyrazine derivative and use thereof” (KOREA RESEARCH INSTITUTE OF CHEMICAL TECHNOLOGY, priority 2013, dated 2016)
